Measured values reported in US6503935B1, “Imidazoles and related compounds as α1A agonists” (Abbott Laboratories, priority 1998, dated 2003).
Where a name gives a salt, the structure may show the parent alone. Read-outs that look alike come from different tables or passages of the source.

Legend:
[1] = molecular target: T1, α1A (rat submaxillary gland) (Rattus norvegicus, UniProt P43140); assay: Radioligand binding with [3H]-prazosin, α1A; conditions: rat submaxillary gland, [3H]-prazosin
T1 construct: α1A (rat submaxillary gland); from tissue; host or cells: rat submaxillary gland
T1 sequence (P43140 1-466): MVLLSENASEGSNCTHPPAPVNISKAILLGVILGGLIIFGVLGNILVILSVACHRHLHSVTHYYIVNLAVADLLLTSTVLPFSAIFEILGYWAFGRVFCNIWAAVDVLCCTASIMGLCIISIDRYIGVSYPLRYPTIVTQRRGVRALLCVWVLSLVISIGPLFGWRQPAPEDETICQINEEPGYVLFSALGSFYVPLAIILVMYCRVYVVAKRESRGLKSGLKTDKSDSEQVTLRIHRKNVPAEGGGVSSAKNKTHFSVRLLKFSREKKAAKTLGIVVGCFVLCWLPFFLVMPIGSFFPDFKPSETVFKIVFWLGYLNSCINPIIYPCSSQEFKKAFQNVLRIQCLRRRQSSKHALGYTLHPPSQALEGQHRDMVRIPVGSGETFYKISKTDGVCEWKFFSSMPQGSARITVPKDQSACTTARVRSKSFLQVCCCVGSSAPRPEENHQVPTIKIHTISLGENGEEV
Description: (§1) For purposes of discussing α1 adrenoceptor subtypes, the IUPHAR convention of using lower case letters to define molecular clones and upper case letters to indicate pharmacologically defined adrenoceptors has been followed. Compounds of formula I were evaluated in radioligand binding assays specific for α1A (rat submaxillary gland), α1b (hamster receptor expressed in mouse fibroblasts) and α1d (rat receptor expressed in mouse fibroblasts) using [^3H]-prazosin as the radioligand as described in Knepper, et al. J. Pharm.

α1A (rabbit urethra) = molecular target: T2, α1A (rabbit urethra) (Oryctolagus cuniculus, UniProt O02824); assay: Agonist contraction of smooth muscle tissue, rabbit urethra; type: cell-based; conditions: rabbit urethra; for EC50: read-out: Agonist Tissue Response (pD2) α1A (rab ureth) (converted)
T2 construct: tested for α1A functional activity using rabbit urethra; from tissue; host or cells: rabbit urethra
T2 sequence (O02824 1-466): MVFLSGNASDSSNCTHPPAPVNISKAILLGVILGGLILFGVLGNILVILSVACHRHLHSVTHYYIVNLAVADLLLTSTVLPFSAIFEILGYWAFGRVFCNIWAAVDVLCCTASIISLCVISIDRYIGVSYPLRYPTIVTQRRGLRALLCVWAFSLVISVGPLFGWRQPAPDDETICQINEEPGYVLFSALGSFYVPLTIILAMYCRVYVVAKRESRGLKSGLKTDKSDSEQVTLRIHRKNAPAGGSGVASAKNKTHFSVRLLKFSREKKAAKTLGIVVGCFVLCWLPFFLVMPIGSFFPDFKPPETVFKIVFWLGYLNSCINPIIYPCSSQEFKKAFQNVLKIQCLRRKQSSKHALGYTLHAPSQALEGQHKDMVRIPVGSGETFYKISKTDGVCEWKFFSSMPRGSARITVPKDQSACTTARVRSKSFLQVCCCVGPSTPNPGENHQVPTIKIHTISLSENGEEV
Description: Most of the compounds were tested for α1A functional activity using rabbit urethra as follows. Female New Zealand white rabbits (2.0-3.5 Kg) were sedated with CO2 and decapitated. […] Subsequent experimental conditions were as described above for the other tissues. Agonist concentration response curves were cumulative except for the vas deferens assay in which the transient response made such measurements impractical.

[2] = molecular target: T3, α1d (rat receptor expressed in mouse fibroblasts) (Rattus norvegicus, UniProt P23944); assay: Radioligand binding with [3H]-prazosin, α1d; conditions: rat receptor expressed in mouse fibroblasts, [3H]-prazosin
T3 construct: expressed in transfected cells; host or cells: mouse fibroblasts
T3 sequence (P23944 1-561): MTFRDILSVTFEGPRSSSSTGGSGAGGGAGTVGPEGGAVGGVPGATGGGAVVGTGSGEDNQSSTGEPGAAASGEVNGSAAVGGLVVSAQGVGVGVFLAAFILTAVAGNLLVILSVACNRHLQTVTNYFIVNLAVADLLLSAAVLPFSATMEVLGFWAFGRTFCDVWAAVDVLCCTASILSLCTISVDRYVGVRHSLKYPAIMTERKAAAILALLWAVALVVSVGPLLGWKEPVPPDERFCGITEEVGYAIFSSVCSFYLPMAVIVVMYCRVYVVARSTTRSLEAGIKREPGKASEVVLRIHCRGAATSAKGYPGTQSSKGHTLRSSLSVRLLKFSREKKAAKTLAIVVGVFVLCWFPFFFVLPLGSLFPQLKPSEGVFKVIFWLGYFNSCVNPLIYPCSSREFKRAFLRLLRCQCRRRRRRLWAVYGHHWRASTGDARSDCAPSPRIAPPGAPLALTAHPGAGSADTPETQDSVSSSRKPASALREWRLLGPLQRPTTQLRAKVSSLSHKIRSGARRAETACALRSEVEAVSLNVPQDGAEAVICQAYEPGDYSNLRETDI
Description: as §1

α1B (rat spleen) = molecular target: T4, α1B (rat spleen) (Rattus norvegicus, UniProt P15823); assay: Agonist contraction of smooth muscle tissue, rat spleen; type: cell-based; conditions: rat spleen; for EC50: read-out: Agonist Tissue Response (pD2) α1B (rat spleen) (converted)
T4 construct: α1B (rat spleen) and α1D (rat aorta) receptors; from tissue; host or cells: rat spleen
T4 sequence (P15823 1-515): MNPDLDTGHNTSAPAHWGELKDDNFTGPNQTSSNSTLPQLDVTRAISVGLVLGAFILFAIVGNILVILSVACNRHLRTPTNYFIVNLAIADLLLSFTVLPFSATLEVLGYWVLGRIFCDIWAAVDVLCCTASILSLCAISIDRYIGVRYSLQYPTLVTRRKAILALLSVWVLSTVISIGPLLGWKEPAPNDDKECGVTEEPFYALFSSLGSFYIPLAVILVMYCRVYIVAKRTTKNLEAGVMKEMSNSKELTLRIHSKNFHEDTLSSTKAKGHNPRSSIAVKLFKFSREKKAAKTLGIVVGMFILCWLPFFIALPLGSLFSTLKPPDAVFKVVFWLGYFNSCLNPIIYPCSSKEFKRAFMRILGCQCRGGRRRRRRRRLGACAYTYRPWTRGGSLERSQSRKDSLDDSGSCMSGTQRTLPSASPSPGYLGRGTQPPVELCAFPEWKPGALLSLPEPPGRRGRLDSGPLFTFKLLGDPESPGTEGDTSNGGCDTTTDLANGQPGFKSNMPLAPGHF

α1D (rat aorta) = molecular target: T5, α1D (rat aorta) (Rattus norvegicus, UniProt P23944); assay: Agonist contraction of smooth muscle tissue, rat aorta; type: cell-based; conditions: rat aorta, endothelium removed; for EC50: read-out: Agonist Tissue Response (pD2) α1D (rat aorta) (converted)
T5 construct: α1B (rat spleen) and α1D (rat aorta) receptors; from tissue; host or cells: rat aorta strips, endothelium removed
T5 sequence (P23944 1-561): T3 sequence (P23944 1-561)

[3] = read-out: Radioligand Binding Ki α1d (Rat)

Work on `CCCCS(=O)(=O)Nc1cccc2c1CCCC2c1cnc[nH]1` (stereo not drawn) [Example 64, N-[5-(1H-imidazol-5-yl)-5,6,7,8-tetrahydro-1-naphthalenyl]-1-butanesulfonamide] yielded a Ki [1] of 4.15 µM.

For `CC(=O)Nc1nc(C)c(S(=O)(=O)Nc2cccc3c2CCCC3c2cnc[nH]2)s1` (stereo not drawn) [Example 76, N-[5-({[5-(1H-imidazol-5-yl)-5,6,7,8-tetrahydro-1-naphthalenyl]amino}sulfonyl)-4-methyl-1,3-thiazol-2-yl]acetamide], the Ki [1] was 3.21 µM.

In the case of `CCS(=O)(=O)Nc1cccc2c1CCCCC2c1c[nH]cn1` (stereo not drawn) [Example 40, N-[5-(1H-imidazol-4-yl)-6,7,8,9-tetrahydro-5H-benzo[a]cyclohepten-1-yl]ethanesulfonamide, maleate], the Ki [1] is reported as 1.34 µM.

`Cc1ccc(S(=O)(=O)Nc2cccc3c2CCCC3c2cnc[nH]2)cc1` (stereo not drawn) [Example 68, N-[5-(1H-imidazol-5-yl)-5,6,7,8-tetrahydro-1-naphthalenyl]-4-methylbenzenesulfonamide] showed a Ki [1] of 5.28 µM.

`CCCS(=O)(=O)Nc1cccc2c1CCCC2c1c[nH]cn1` (stereo not drawn) [Example 63, N-[5-(1H-imidazol-5-yl)-5,6,7,8-tetrahydro-1-naphthalenyl]-1-propanesulfonamide] gave a Ki [1] of 1.72 µM.

For `CS(=O)(=O)Nc1cccc2c1CCCCC2c1c[nH]cn1` (stereo not drawn) [Example 38, N-[5-(1H-imidazol-4-yl)-6,7,8,9-tetrahydro-5H-benzo[a]cyclohepten-1-yl]methanesulfonamide, maleate], the Ki [1] was 1.36 µM, the EC50 (α1A (rabbit urethra)) was 19.1 µM and the Ki [2, 3] was 2.54 µM.

Compound `CCS(=O)(=O)Nc1ccc(Cl)c2c1CCCC2c1c[nH]cn1` (stereo not drawn) [Example 42, N-[4-chloro-5-(1H-imidazol-4-yl)-5,6,7,8-tetrahydro-1-naphthalenyl]ethanesulfonamide, maleate] has a Ki [1] of 0.359 µM, an EC50 (α1A (rabbit urethra)) of over 1000 µM and a Ki ([2]; Radioligand Binding Ki α1d (Rat)) of 2.28 µM.

Work on `CS(=O)(=O)Nc1ccc(Cl)c2c1CCCC2c1c[nH]cn1` (stereo not drawn) [Example 43, N-[4-chloro-5-(1H-imidazol-4-yl)-5,6,7,8-tetrahydro-1-naphthalenyl]methanesulfonamide, maleate] yielded a Ki [1] of 0.445 µM, an EC50 (α1A (rabbit urethra)) of 44.7 µM and a Ki [2, 3] of 2.86 µM. The EC50 (α1B (rat spleen)) was over 1000 µM and the EC50 (α1D (rat aorta)) was over 1000 µM.

With `O=S(=O)(Nc1cccc2c1CCCC2c1cnc[nH]1)c1ccc(Cl)s1` (stereo not drawn) [Example 72, 5-Chloro-N-[5-(1H-imidazol-5-yl)-5,6,7,8-tetrahydro-1-naphthalenyl]-2-thiophenesulfonamide] the Ki [1] was 1.51 µM and the Ki [2, 3] was 2.28 µM.

For “Methyl 2-({[5-(1H-imidazol-5-yl)-5,6,7,8-tetrahydro-1-naphthalenyl]amino}sulfonyl)-3-thiophenecarboxylate [Example 75]”, the Ki [1] was 4.6 µM.

`O=S(=O)(CC(F)(F)F)Nc1cccc2c1CCCC2c1c[nH]cn1` (single isomer, unassigned; (-)) [Example 35, (−)-N-[5,6,7,8-tetrahydro-5-(1H-imidazol-4-yl)-1-naphthalenyl]-2,2,2-trifluoroethanesulfonamide] was tested, and the Ki [1] was 2.18 µM, the EC50 (α1A (rabbit urethra)) was 81.3 µM and the EC50 (α1B (rat spleen)) was over 1000 µM. For the same compound, the EC50 (α1D (rat aorta)) was over 1000 µM.

Compound `Cc1noc(C)c1S(=O)(=O)Nc1cccc2c1CCCC2c1cnc[nH]1` (stereo not drawn) [Example 61, N-[5-(1H-imidazol-5-yl)-5,6,7,8-tetrahydro-1-naphthalenyl]-3,5-dimethyl-4-isoxazolesulfonamide] has a Ki [1] of 1.56 µM.

`Cc1ccccc1S(=O)(=O)Nc1cccc2c1CCCC2c1cnc[nH]1` (stereo not drawn) [Example 69, N-[5-(1H-imidazol-5-yl)-5,6,7,8-tetrahydro-1-naphthalenyl]-2-methylbenzenesulfonamide] was tested, and the Ki [1] was 4.47 µM.

For `CCS(=O)(=O)Nc1ccc(OC)c2c1CCCC2c1c[nH]cn1.O=C(O)C=CC(=O)O` (stereo not drawn) [Example 25], the “Agonist Tissue Response (pD2) α1A (rab ureth)” value (α1A (rabbit urethra)) was 4.48, the “Agonist Tissue Response (pD2) α1B (rat spleen)” value (α1B (rat spleen)) was 3.12 and the “Agonist Tissue Response (pD2) α1D (rat aorta)” value (α1D (rat aorta)) was under 3.00.

With `O=S(=O)(CC(F)(F)F)Nc1cccc(Cc2c[nH]cn2)c1` [Example 78, 2,2,2-trifluoro-N-[3-(1H-imidazol-4-ylmethyl)phenyl]ethanesulfonamide, maleate] the EC50 (α1A (rabbit urethra)) was 8.91 µM.

`Cc1nn(C)c(Cl)c1S(=O)(=O)Nc1cccc2c1CCCC2c1cnc[nH]1` (stereo not drawn) [Example 74, 5-Chloro-N-[5-(1H-imidazol-5-yl)-5,6,7,8-tetrahydro-1-naphthalenyl]-1,3-dimethyl-1H-pyrazole-4-sulfonamide] was tested, and the Ki [1] was 5.06 µM.

`Cc1ccc(NS(C)(=O)=O)c2c1C(c1c[nH]cn1)CCC2` (stereo not drawn) [Example 23, N-[5,6,7,8-tetrahydro-5-(1H-imidazol-4-yl)-4-methyl-1-naphthalenyl]methanesulfonamide, maleate] gave a Ki [1] of 0.391 µM, an EC50 (α1A (rabbit urethra)) of 39.8 µM and a Ki [2, 3] of 2.67 µM. For the same compound, the EC50 (α1B (rat spleen)) was over 1000 µM and the EC50 (α1D (rat aorta)) was over 1000 µM.

`CCS(=O)(=O)Nc1ccc(OC)c2c1CCCC2c1c[nH]cn1.O=C(O)C=CC(=O)O` (stereo not drawn) [Example 25, maleate] was tested, and the Ki [1] was 2.46 µM.

Work on `CCC(O)(c1cccc(NS(=O)(=O)CC)c1)c1c[nH]cn1` (stereo not drawn) [Example 55, N-[3-(1-hydroxy-1-(1H-imidazol-4-yl)propyl)phenyl]ethanesulfonamide] yielded a Ki [1] of 3.65 µM and a Ki [2, 3] of 2.34 µM.

With `CS(=O)(=O)Nc1ccc(O)c2c1CCCC2c1c[nH]cn1` (stereo not drawn) [Example 24, N-[5,6,7,8-tetrahydro-4-hydroxy-5-(1H-imidazol-4-yl)-1-naphthalenyl]methanesulfonamide, maleate] the Ki [1] was 0.712 µM, the EC50 (α1A (rabbit urethra)) was 24.5 µM and the EC50 (α1B (rat spleen)) was over 1000 µM. For the same compound, the EC50 (α1D (rat aorta)) was over 1000 µM.

In the case of `O=C(O)C=CC(=O)O.O=S(=O)(Nc1cccc2c1CCCC2c1c[nH]cn1)C1CC1` (stereo not drawn) [Example 27, N-[5,6,7,8-tetrahydro-(1H-imidazol-4-yl)-1-naphthalenyl]cyclopropanesulfonamide, maleate], the Ki [1] is reported as 0.531 µM, the “Agonist Tissue Response (pD2) α1A (rab ureth)” value (α1A (rabbit urethra)) is reported as 5.25 and the Ki [2, 3] is reported as 2.67 µM.
